Data from patent publication US20070077283A1, “METHOD OF ENHANCING TRANSMUCOSAL DELIVERY OF THERAPEUTIC COMPOUNDS” (Nastech Pharmaceutical Company Inc., priority 2005, published 2007).

Experiments:
[1] = tested on: ciliary function in epithelial cell cultures; details: Hingley et al. 1986; cited from earlier work
[2] = tested on: human-derived tracheal/bronchial epithelial cells (EpiAirway Tissue Model); assay: Transepithelial electrical resistance (TER) of an epithelial cell monolayer; format: cell-based
Experimental: Inserts are feed for each day of recovery. TER measurements were accomplished using the Endohm-12 Tissue Resistance Measurement Chamber connected to the EVOM Epithelial Voltohmmeter (World Precision Instruments, Sarasota, Fla.) with the electrode leads. The electrodes and a tissue culture blank insert were equilibrated for at least 20 minutes in MatTek medium with the power off prior to checking calibration. The background resistance was measured with 1.5 ml media in the Endohm tissue chamber and 300 μl media in the blank insert. The top electrode was adjusted so that it was close to, but not making contact with, the top surface of the insert membrane. Background resistance of the blank insert was about 5-20 ohms. […] TER values are a function of the surface area of the tissue. […] By this method of calculation, TER will be expressed as both Ohms*cm2 and percent original TER value. […] Several different lipid types (see Table 1) were screened to select for lipids that are capable of enhancing the permeation of a biological agent across an epithelial cell monolayer. […] A reduction in TER correlates with the ability to enhance the permeation of a molecule and biological agent across an epithelia.

[3] = tested on: human-derived tracheal/bronchial epithelial cells (EpiAirway Tissue Model); assay: FITC-Dextran permeation assay across epithelial cell monolayer; format: cell-based; details: for Mean % FD3 Permeation: FITC-dextran 3000 (Table 4)
Experimental: Each tissue insert was placed in an individual well containing 1 ml of MatTek basal media. On the apical surface of the inserts, 20 μl of test formulation was applied according to study design, and the samples were placed on a shaker (˜100 rpm) for 1.5 hours at 37° C. FITC-labeled dextran solution was added to inserts apically and a fluorescence measurement was taken from the basolateral media after the incubation period. Two hundred microliters of the basal media for each test formulation was transferred to a dark-wall fluorescent reading plate. Each test formulation was tested in triplicate. Fluorescent intensity was measured at 470 nM with the microplate fluorescence reader FLx800 (Bio-Tek Instruments, Inc., Winooski, Vt.). A FITC labeled dextran with a molecular weight of 3 kDA, 10 kDA, 20 kDA, 40 kDA, 70 kDA and/or 500 kDA was used to assess the ability of individual lipids to deliver a model protein across an epithelia.
(§1) Permeation is expressed as percent permeation and was calculated as follows: [formula] [formula] Terms
PBS and 0.3% Triton-X100™ served as […]. […] FD permeation was presented as the percent of FD that crossed from the apical side of the epithelial cell monolayer to the basolateral cell surface.

[4] = tested on: human-derived tracheal/bronchial epithelial cells (EpiAirway Tissue Model); assay: Cell viability (MTT assay); format: cell-based
Experimental: Cell viability will be assessed using the MTT assay (MTT-100, MatTek kit). This kit measures the uptake and transformation of tetrazolium salt to formazan dye. Thawed and diluted MTT concentrate is prepared 1 hour prior to the end of the dosing period with the lipid by mixing 2 mL of MTT concentrate with 8 mL of MTT diluent. Each cell culture insert is washed twice with PBS containing Ca^+2 and Mg^+2 and then transferred to a new 96-well transport plate containing 100 μL of the mixed MTT solution per well. This 96-well transport plate is then incubated for three hours at 37° C. and 5% CO2. After the three hour incubation, the MTT solution is removed and the cultures are transferred to a second 96-well feeder tray containing 250 μL MTT extractant solution per well. An additional 150 μL of MTT extractan solution was added to the surface of each culture well and the samples sat at room temperature in the dark for a minimum of two hours and maximum of 24 hours. The insert membrane was then pierced with a pipet tip and the solutions in the upper and lower wells were allowed to mix. Two hundred microliters of the mixed extracted solution along with extracted blanks (negative control) was transferred to a 96-well plate for measurement with a microplate reader. The optical density (OD) of the samples was measured at 570 nm with the background subtraction at 650 nm on a plate reader. Cell viability was expressed as a percentage and calculated by dividing the OD readings for treated inserts by the OD readings for the PBS treated inserts and multiplying by 100. For the purposes of this assay, it was assumed that PBS had no effect on cell viability and therefore represented 100% cell viability.

[5] = tested on: human-derived tracheal/bronchial epithelial cells (EpiAirway Tissue Model); assay: TER recovery / TER time course; format: cell-based; details: lipids 500 μM, PN159 25 μM
Experimental: TER recovery was calculated as described in the above paragraph.
Reversibility is a critical factor in selecting epithelial cell permeabiling enhancers since the barrier function of the epithelial cells serves as the first line of defense against pathogens and the entrance of toxins into the body. The permeation enhancing lipids C16 PAF; C18 PAF; C16 Enantiomeric PAF; POVPC; C16-04: 1 PC and PGPC were incubated with a monolayer of human-derived tracheal/bronchial epithelial cells (EpiAirway™ Model System) and TER […] The lipid glucosyl sphingosine was also tested. Each permeation enhancing lipid (except PGPC) was applied at a concentration of 1000 μM for 15, 30 and 60 minutes. The permeation enhancing lipid PGPC and the lipid glucosyl sphingosine were applied at a concentration of 500 μM for 1, 3, 5, 30 and 60 minutes. TER measurements were taken immediately after each application to determine how quickly each lipid could reduce TER.
[…] […] PBS served as a negative control and Triton-X100™ served as a positive control.
To asses how quickly the cells recovered after application and removal of the permeation enhancing lipid PGPC and the lipid glucosyl sphingosine, TER measurements were taken at 1, 3, 5, 7, and 9 hours post-treamtnet for each of the prior mentioned timed treatments (i.e., 1, 3, 5, 15, 30 and 60 minutes). TER recovery measures the reversibility of the lipid mediated effect on an epithelia. […] Hyptonic PBS served as a negative control for TER reduction and TER recovery.

[6] = tested on: human-derived tracheal/bronchial epithelial cells (EpiAirway Tissue Model); assay: Peptide YY (PYY) permeation across epithelial cell monolayer; format: cell-based
Experimental: as §1
In the instant example, the ability of permeation enhancing lipids to enhance the permeation of the biological agent, peptide YY (PYY; molecular weight of 3.7 kDa) across the epithelial cell monolayer model system (EpiAirway™) was measured. Also, the efficacy of a permeation enhancing lipid to enhance the permeation of insulin across and epithelial cell layer was measured. Refer to Example 2 of the instant application for general protocol details.

[7] = tested on: human-derived tracheal/bronchial epithelial cells (EpiAirway Tissue Model); assay: in vitro
Experimental: Normal, human-derived tracheal/bronchial epithelial cells will serve as the model cell system for assessing the lipids listed in Table 1. The cells are supplied by MatTek Corp. (Ashland, Mass.) as the EpiAirway™ Tissue Model. The cells are provided as a confluent monolayer on a Millipore Milicell-CM cell culture insert with a pore size of 0.4 μM, inner diameter of 0.8 cm and surface area of 0.6 cm^2 and comprised of transparent hydrophilic Teflon (PTFE). Upon receipt, the membranes are cultured in 1 ml basal media (phenol red-free and hydrocortisone-free Dulbecco's Modified Eagle's Media (DMEM) at 37° C./5% CO2 for 24-48 hours before use. Inserts are feed for each day of recovery.
The amount of cell death was assayed by measuring the loss of lactate dehydrogenase (LDH) from the cells using a CytoTox 96 Cytotoxicity Assay Kit (Promega Corp., Madison, Wis.). A treatment of 1% Octylphenolpoly(ethyleneglycolether)x (Triton X-100™) diluted in PBS was used as a lysis control. One percent Triton X-100™ mediated cell lysis was normalized to 100%. For basal-lateral LDH levels, triplicates of 50 μl of the basal media were loaded into a 96-well assay plate. For apical LDH levels, 150 μl of Epi-Cm was added to the apical side of each chamber and mixed by pipeting. One hundred and fifty microliters was then removed and diluted 2-fold prior to performing the LDH assay. All apical LDH assay were performed in triplicate and with 50 μl of the diluted test solution. Fresh, cell-free culture medium will be used as a blank. Total LDH levels were determined by lysing cells in a final concentration of 0.9% Triton-X100™. Fifty microliters of substrate solution was added to each well and the plates incubated for 30 minutes at room temperature in the dark. Following incubation, 50 μl of stop solution was added to each well and the plates read on an optical density plate reader at […]. Cytotoxicity was expressed as a percentage calculated by subtracting the average absorbance of the PBS control wells as the endogenously released LDH level and expressing that value relative to the average Triton-X100 control, which represents total LDH content. [formula] Osmolality
For the instant application, phosphate buffered saline (PBS) served as a negative control for both the TER assay and LDH (cytotoxicity) assay. […] TER measurements and LDH levels were taken immediately after a one hour treatment of the cultured cells with each lipid, unless specified otherwrise.
TER reduction was expressed as the percent decrease in TER value from time zero to one hour post-treatment. Thus, greater percent reduction in TER represents less electrical resistance across the epithelial cell monolayer and consequently greater epithelial cell permeation. Cytotoxicity (LDH levels) for each lipid was expressed as a percent of the LDH levels measured after Triton-X100 treatment of the cells. Triton-X100™ LDH levels were normalized to 100%.

[8] = lipid 500 μM / PYY 13.67 mg/mL (High)
[9] = lipid / PYY 10 mg/mL, listed as PAF-antangonist

2-alkyl-4-hydroxyquinolines [pyo compound]
concentration producing ciliostasis / inhibiting ciliary motility [1]: 50 µg/mL

CCCCCCCCCCCCC/C=C/[C@@H](O)[C@@H](N)CO[C@@H]1O[C@H](CO)[C@@H](O)[C@H](O)[C@H]1O [Glucosyl-sphingosine, D-Glucosyl-β1-1′-D-erythro-Sphingosine]
% Original TER ([2]; lipid 500 μM / PYY 13.67 mg/mL (High), listed as Glucosyl Sphingosine): 12% | % Original TER ([2]; lipid 500 μM / PYY 13.67 mg/mL (High), listed as glucosyl sphingosine): reduced TER to levels equivalent of PN159 | % FITC-Dextran Permeation FD3 ([3]; lipid 500 μM (Table 5)): 4% | MTT levels (cell viability) ([4]; compared with PBS negative control (Example 5)): MTT levels comparable to that of the PBS negative control | % Cell Viability [4, 8]: 109% | time to full TER recovery (PBS control levels) ([5]; after 1, 3, 5, 15 and 30 minute treatments): fully recovered within one hour | time to full TER recovery (PBS control levels) ([5]; after 60 minute treatment): did not reach PBS TER control levels until three hours post-treatment | % PYY Permeation [6, 8]: 1.17%

CCCCCCCCCCCCCCCCOC[C@H](COP(=O)([O-])OCCCCCC[N+](C)(C)C)OC(C)=O [PAF-antagonist, 1-O-Hexadecyl-2-O-Acetyl-sn-Glycero-3-Phospho(N,N,N-trimethyl) Hexanolamine]
Mean % of Original TER Value ([2]; lipid 500 μM (Table 4)): 20% | Mean % of Original TER Value ([2]; lipid 1000 μM, lower value = greater TER reduction (Table 4)): 9% | % Original TER ([2]; lipid / PYY 10 mg/mL): reduced TER below that of the positive control PN159 and equivalent to the positive control Special Sauce | % Original TER [2, 9]: 2% | Mean % Relative Cytotoxic Effect (LDH) ([7]; lipid 500 μM (Table 4)): 8% | Mean % Relative Cytotoxic Effect (LDH) ([7]; lipid 1000 μM (Table 4)): 10% | Mean % FD3 Permeation ([3]; lipid 500 μM): 6% | % FITC-Dextran Permeation FD10 ([3]; lipid 1000 μM): 5% | % FITC-Dextran Permeation FD40 ([3]; lipid 1000 μM): 2% | % FITC-Dextran Permeation FD3 ([3]; lipid 1000 μM (Table 5)): 11% | Mean % FD3 Permeation ([3]; lipid 1000 μM): 11% | permeation of FD3 relative to negative controls ([3]; text summary of Table 4): enhanced the permeation of FD3 above that of the negative controls | % PYY Permeation ([6]; lipid / PYY 10 mg/mL): enhanced permeation of PYY equivalent to or above the positive control PN159 | % PYY Permeation [6, 9]: 2.4%

rhamnolipid
effect of limited exposure of tracheal explants [1]: ciliostasis
